# In patent publication US20250289793A1, “MACROCYCLIC INHIBITORS OF ATP CITRATE LYASE” (Esperion Therapeutics, Inc., priority 2022, published 2025):
# Experiments:
# [1] = target: T1, ACLY (Homo sapiens (Human), UniProt P53396); test: InCell Pulse assay (permeate HEK293 cells, bind to and stabilize ACLY); assay type: cell-based; conditions: HEK293 cells transfected with pICP-ACLY(FL)-ePL; 1 hour at 37° C., 55° C. heat pulse 10 minutes; read-out: InCell Pulse IC50 GMean
# In short: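 HEK293 cells transiently expressing full-length ACLY-ePL were exposed in OptiMEM to 11-point, 3-fold compound dilutions for 1 h at 37 °C, heat-pulsed 10 min at 55 °C, then lysed for enzyme-fragment complementation luminescence. Four-parameter fit, normalised to 0.5% DMSO and 1 μM NDI-094311.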
# [2] = target: T1, ACLY; test: Human ACLY (hACLY) RF/MS activity assay; assay type: biochemical; conditions: 1 nM hACLY; 30 min pre-incubation; 15 μM Coenzyme A, 50 μM ATP, 50 μM citrate; CoA to Acetyl-CoA by RF/MS; read-out: RFMS IC50 GMean
# In short: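 RapidFire MS read CoA-to-acetyl-CoA conversion as a substrate/product ratio after 30 min at RT (20° C) with final 15 μM CoA, 50 μM ATP, 50 μM citrate. Before substrate addition, 1 nM enzyme sat 30 min with compound (top 10 μM, two-fold dilutions; 1% DMSO) in pH 8.0 Hepes/MgCl2/NaCl/DTT buffer.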
# T1 sequence (P53396 whole entry, the tested form may be a part): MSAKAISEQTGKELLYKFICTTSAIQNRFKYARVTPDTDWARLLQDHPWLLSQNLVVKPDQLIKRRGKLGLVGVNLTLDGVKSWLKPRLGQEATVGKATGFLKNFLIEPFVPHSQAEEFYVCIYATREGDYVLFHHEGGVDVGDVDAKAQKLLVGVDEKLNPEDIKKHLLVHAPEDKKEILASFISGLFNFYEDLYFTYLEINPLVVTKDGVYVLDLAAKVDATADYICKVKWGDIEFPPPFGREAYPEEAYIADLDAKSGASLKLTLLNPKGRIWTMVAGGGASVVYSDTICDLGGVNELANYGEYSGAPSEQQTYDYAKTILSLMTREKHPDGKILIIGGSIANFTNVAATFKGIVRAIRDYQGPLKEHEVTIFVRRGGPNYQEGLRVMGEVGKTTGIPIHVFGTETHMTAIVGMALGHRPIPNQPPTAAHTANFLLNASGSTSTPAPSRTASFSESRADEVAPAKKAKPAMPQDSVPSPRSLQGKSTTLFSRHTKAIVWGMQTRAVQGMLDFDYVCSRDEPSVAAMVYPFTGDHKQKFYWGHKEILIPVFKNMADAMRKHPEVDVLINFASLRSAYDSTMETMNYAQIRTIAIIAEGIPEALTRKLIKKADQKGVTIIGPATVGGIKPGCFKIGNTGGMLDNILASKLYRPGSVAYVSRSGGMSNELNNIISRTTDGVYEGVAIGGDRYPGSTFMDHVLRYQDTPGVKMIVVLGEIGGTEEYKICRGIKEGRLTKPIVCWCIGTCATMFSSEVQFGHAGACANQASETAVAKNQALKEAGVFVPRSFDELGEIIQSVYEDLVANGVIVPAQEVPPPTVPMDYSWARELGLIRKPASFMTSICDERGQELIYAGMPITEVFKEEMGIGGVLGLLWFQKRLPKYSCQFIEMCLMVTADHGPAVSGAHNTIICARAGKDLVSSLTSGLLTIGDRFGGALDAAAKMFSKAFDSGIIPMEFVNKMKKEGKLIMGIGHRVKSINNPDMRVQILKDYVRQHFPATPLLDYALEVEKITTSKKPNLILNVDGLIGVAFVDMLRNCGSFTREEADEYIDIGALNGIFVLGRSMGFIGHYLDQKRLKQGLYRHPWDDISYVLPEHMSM
Compound,IC50 [1],IC50 [2]
"O=C1OCCOc2ccccc2-c2cc(c(F)cc2F)NS(=O)(=O)c2cc(O)cc1c2 [Compound 65, 21,23-difluoro-15-hydroxy-18,18-dioxo-8,11-dioxa-18λ6-thia-19-azatetracyclo[18.3.1.113,17.02,7]pentacosa-1(24),2,4,6,13,15,17(25),20,22-nonaen-12-one]",≥ 50 µM,≥ 10 µM
"CN1CCc2ccccc2-c2cc(c(F)cc2F)NS(=O)(=O)c2cc(cc(Cl)c2O)C1=O [Compound 71, 14-chloro-20,22-difluoro-15-hydroxy-10-methyl-17,17-dioxo-17λ6-thia-10,18-diazatetracyclo[17.3.1.112,16.02,7]tetracosa-1(22),2(7),3,5,12,14,16(24),19(23),20-nonaen-11-one]",≥ 50 µM,< 0.02 µM
"O=C1OCCc2cc(F)ccc2-c2ccc(F)c(c2)NS(=O)(=O)c2cc1cc(Cl)c2O [Compound 73, 14-chloro-5,20-difluoro-15-hydroxy-17,17-dioxo-10-oxa-17λ6-thia-18-azatetracyclo[17.3.1.112,16.02,7]tetracosa-1(22),2(7),3,5,12,14,16(24),19(23),20-nonaen-11-one]",< 0.3 µM,0.02 to 0.1 µM
"O=C1OCCc2ccc(F)cc2-c2ccc(F)c(c2)NS(=O)(=O)c2cc1cc(Cl)c2O [Compound 74, 14-chloro-4,20-difluoro-15-hydroxy-17,17-dioxo-10-oxa-17λ6-thia-18-azatetracyclo[17.3.1.112,16.02,7]tetracosa-1(22),2(7),3,5,12(24),13,15,19(23),20-nonaen-11-one]",< 0.3 µM,0.02 to 0.1 µM
"O=C1OCC2CN(C2)c2ccccc2-c2cc(c(F)cc2F)NS(=O)(=O)c2cc1cc(Cl)c2O [Compound 76, 16-chloro-22,24-difluoro-17-hydroxy-19,19-dioxo-12-oxa-19λ6-thia-8,20-diazapentacyclo[19.3.1.18,10.114,18.02,7]heptacosa-1(25),2,4,6,14,16,18(26),21,23-nonaen-13-one]",1 to 50 µM,0.02 to 0.1 µM
"O=S1(=O)Nc2cc(c(F)cc2F)-c2ccccc2OCCn2cnnc2-c2cc(Cl)c(O)c1c2 [Compound 77, 25-chloro-17,19-difluoro-22,22-dioxo-9-oxa-2λ6-thia-3,4,6,21-tetrazapentacyclo[21.3.1.116,20.02,6.010,15]octacosa-1(26),2,4,10,12,14,16(28),17,19,23(27),24-undecaen-24-ol]",1 to 50 µM,< 0.02 µM
"O=C1OCCOc2ccc(F)cc2-c2cc(F)c(F)c(c2)NS(=O)(=O)c2cc1cc(Cl)c2O [Compound 79, 15-chloro-4,21,22-trifluoro-16-hydroxy-18,18-dioxo-8,11-dioxa-18λ6-thia-19-azatetracyclo[18.3.1.113,17.02,7]pentacosa-1(23),2(7),3,5,13,15,17(25),20(24),21-nonaen-12-one]",< 0.3 µM,< 0.02 µM
"O=C1OCCc2ccccc2-c2cc(F)c(F)c(c2)NS(=O)(=O)c2cc1cc(Cl)c2O [Compound 80, 14-chloro-20,21-difluoro-15-hydroxy-17,17-dioxo-10-oxa-17λ6-thia-18-azatetracyclo[17.3.1.112,16.02,7]tetracosa-1(23),2,4,6,12,14,16(24),19,21-nonaen-11-one]",< 0.3 µM,< 0.02 µM
"O=C1OCc2ccc(F)cc2-c2cc(c(F)cc2F)NS(=O)(=O)c2cc1cc(Cl)c2O [Compound 81, 13-chloro-4,19,21-trifluoro-14-hydroxy-16,16-dioxo-9-oxa-16λ6-thia-17-azatetracyclo[16.3.1.111,15.02,7]tricosa-1(21),2,4,6,11(23),12,14,18(22),19-nonaen-10-one]",< 0.3 µM,< 0.02 µM
"O=C1OCc2ccccc2-c2cc(F)c(F)c(c2)NS(=O)(=O)c2cc1cc(Cl)c2O [Compound 82, 13-chloro-19,20-difluoro-14-hydroxy-16,16-dioxo-9-oxa-16λ6-thia-17-azatetracyclo[16.3.1.111,15.02,7]tricosa-1(21),2,4,6,11(23),12,14,18(22),19-nonaen-10-one]",< 0.3 µM,< 0.02 µM
"N#Cc1ccc2c(c1)-c1cc(c(F)cc1F)NS(=O)(=O)c1cc(cc(Cl)c1O)C(=O)OC2 [Compound 86, 13-chloro-19,21-difluoro-14-hydroxy-10,16,16-trioxo-9-oxa-16λ6-thia-17-azatetracyclo[16.3.1.111,15.02,7]tricosa-1(21),2,4,6,11(23),12,14,18(22),19-nonaene-4-carbonitrile]",0.3 to 1 µM,0.1 to 10 µM

# Second part, the molecule after the results:
IC50 [1],IC50 [2],Compound
0.3 to 1 µM,< 0.02 µM,"O=S1(=O)Nc2cc(c(F)cc2F)-c2ccccc2OCCOCc2cc(Cl)c(O)c1c2 [Compound 67, 15-chloro-21,23-difluoro-18,18-dioxo-8,11-dioxa-18λ6-thia-19-azatetracyclo[18.3.1.113,17.02,7]pentacosa-1(23),2(7),3,5,13,15,17(25),20(24),21-nonaen-16-ol]"
< 0.3 µM,< 0.02 µM,"O=C1Cc2cc(Cl)c(O)c(c2)S(=O)(=O)Nc2cc(c(F)cc2F)-c2ccccc2CO1 [Compound 68, 14-chloro-20,22-difluoro-15-hydroxy-17,17-dioxo-9-oxa-17λ6-thia-18-azatetracyclo[17.3.1.112,16.02,7]tetracosa-1(22),2(7),3,5,12(24),13,15,19(23),20-nonaen-10-one]"
< 0.3 µM,0.1 to 10 µM,"O=S1(=O)Nc2cc(ccc2F)-c2ccccc2CCOCc2cc(Cl)c(O)c1c2 [Compound 69, 14-chloro-20-fluoro-17,17-dioxo-10-oxa-17λ6-thia-18-azatetracyclo[17.3.1.112,16.02,7]tetracosa-1(23),2,4,6,12,14,16(24),19,21-nonaen-15-ol]"
≥ 50 µM,0.02 to 0.1 µM,"O=C1OCC[C@H]2CCCN2c2ccc(F)c(c2)NS(=O)(=O)c2cc1cc(Cl)c2O [Compound 70, (6R)-13-chloro-19-fluoro-14-hydroxy-16,16-dioxo-9-oxa-16%6-thia-2,17-diazatetracyclo[16.3.1.111,15.02,6]tricosa-1(21),11(23),12,14,18(22),19-hexaen-10-one]"
< 0.3 µM,< 0.02 µM,"O=C1OCCc2ccccc2-c2ccc(F)c(c2)NS(=O)(=O)c2cc1cc(Cl)c2O [Compound 72, 14-chloro-20-fluoro-15-hydroxy-17,17-dioxo-10-oxa-17λ6-thia-18-azatetracyclo[17.3.1.112,16.02,7]tetracosa-1(22),2(7),3,5,12,14,16(24),19(23),20-nonaen-11-one]"
0.3 to 1 µM,0.1 to 10 µM,"Cc1cc2cc(c1O)S(=O)(=O)Nc1cc(c(F)cc1F)-c1ccccc1CCOC2=O [Compound 75, 20,22-difluoro-15-hydroxy-14-methyl-17,17-dioxo-10-oxa-17λ6-thia-18-azatetracyclo[17.3.1.112,16.02,7]tetracosa-1(23),2,4,6,12,14,16(24),19,21-nonaen-11-one]"
< 0.3 µM,< 0.02 µM,"O=C1OCc2ccccc2-c2cc(c(F)cc2F)NS(=O)(=O)c2cc1cc(Cl)c2O [Compound 78, 13-Chloro-19,21-difluoro-14-hydroxy-16,16-dioxo-9-oxa-16λ6-thia-17-azatetracyclo[16.3.1.111,15.02,7]tricosa-1(21),2(7),3,5,11(23),12,14,18(22),19-nonaen-10-one]"
< 0.3 µM,< 0.02 µM,"O=C1OCc2ccc(F)cc2-c2cc(F)c(F)c(c2)NS(=O)(=O)c2cc1cc(Cl)c2O [Compound 83, 13-chloro-4,19,20-trifluoro-14-hydroxy-16,16-dioxo-9-oxa-16λ6-thia-17-azatetracyclo[16.3.1.111,15.02,7]tricosa-1(21),2,4,6,11,13,15(23),18(22),19-nonaen-10-one]"
< 0.3 µM,0.1 to 10 µM,"O=C1OCc2ccccc2-c2ccc(F)c(c2)NS(=O)(=O)c2cc1cc(Cl)c2O [Compound 84, 13-chloro-19-fluoro-14-hydroxy-16,16-dioxo-9-oxa-16λ6-thia-17-azatetracyclo[16.3.1.111,15.02,7]tricosa-1(21),2(7),3,5,11(23),12,14,18(22),19-nonaen-10-one]"
≥ 50 µM,< 0.02 µM,"N#Cc1ccc2c(c1)COC(=O)c1cc(Cl)c(O)c(c1)S(=O)(=O)Nc1cc-2c(F)cc1F [Compound 85, 13-chloro-19,21-difluoro-14-hydroxy-10,16,16-trioxo-9-oxa-16λ6-thia-17-azatetracyclo[16.3.1.111,15.02,7]tricosa-1(21),2(7),3,5,11,13,15(23),18(22),19-nonaene-5-carbonitrile]"
≥ 50 µM,0.02 to 0.1 µM,"O=C1OCc2cccnc2-c2cc(c(F)cc2F)NS(=O)(=O)c2cc1cc(Cl)c2O [Compound 87, 13-chloro-19,21-difluoro-14-hydroxy-16,16-dioxo-9-oxa-16λ6-thia-3,17-diazatetracyclo[16.3.1.111,15.02,7]tricosa-1(21),2(7),3,5,11,13,15(23),18(22),19-nonaen-10-one]"
≥ 50 µM,0.1 to 10 µM,"O=C1OCc2ncccc2-c2cc(c(F)cc2F)NS(=O)(=O)c2cc1cc(Cl)c2O [Compound 88, 13-chloro-19,21-difluoro-14-hydroxy-16,16-dioxo-9-oxa-16λ6-thia-6,17-diazatetracyclo[16.3.1.111,15.02,7]tricosa-1(21),2(7),3,5,11,13,15(23),18(22),19-nonaen-10-one]"
